Experimental findings from patent US20250340529A1, “Heterocyclic Compounds as Immunomodulators of PD-L1 Interactions” (Ascletis BioScience Co., Ltd, priority 2021, published 2025) are described below.

SMILES strings stand for the structures.

Assay [1] addresses PD-1/PD-L1 (Homo sapiens (Human), UniProt Q9NZQ7). As to the kind of experiment: PD-1/PD-L1 Homogeneous Time-Resolved Fluorescence (HTRF) binding assay. Particulars: 3 nM PD1, 10 nM PD-L1, 25° C., PBS pH 7.4. The gist of the method:
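HTRF with His-tagged human PD-L1 (19-238, 10 nM) and Fc-tagged human PD-1 (25-167, 3 nM) preincubated with inhibitors 40 min in PBS pH 7.4, 0.05% Tween-20, 0.1% BSA, 1% DMSO, 25° C. Eu anti-human IgG and anti-His-APC added, 60 min; 665/620 nm ratio; IC50 from percent control activity fit.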
For orientation: In TR-FRET formats the signal depends on donor and acceptor labels being close together.

The target of assay [2] is PD-L1/CHO-K1 cells (Homo sapiens (Human), UniProt Q9NZQ7). The experiment in a line: PD-L1 internalization (FACS, PD-L1/CHO-K1 cells). In kind it is cell-based. The conditions noted are these: % activation of PD-L1 internalization = 1 − PD-L1 signal; 17 hours incubation. As for the experimental part:
Day 1. Seeding cells: Digest the PD-L1/CHO-K1 cells by trypsin in the flask, then counting the cell number and diluted to 1×10^5 cells/ml. Seeding cells to 6 well plate (Corning, #3516), 2 mL/well. The plates were incubated at 37° C., […] incubator for 24 hours.
Day 2. Preparing compounds and treated cells: Dilute GLC01-258 from 15 mM to 0.5 mM by using DMSO, and 15 mM compound were serial diluted from 15 mM˜15 nM by DMSO, Then 500 times dilute the compounds by using assay buffer. Prepare 0.2% DMSO in assay buffer used for Vehicle control and low control. Take out the plates, aspirated the medium and thrown away. Adding 2 mL of the diluted compounds, vehicle control and low control to corresponding wells. Then incubated the plates for 17 hours at 37° C., 5% CO2 incubator.
Day 3. Preparing samples for FACS: After 17 hours incubation, discarded medium and washed by the PBS. Cells in each well were Digested by trypsin. Centrifuge and discard the supernatant, then wash the cells by DPBS (Ca^2+, Mg^2+ free) for twice. 10 fold dilute the antibody (PE-conjugated mouse anti-human CD274) by DPBS, then adding the staining solution to compounds treated samples and vehicle control sample. The low control only add DPBS without antibody. Incubate the plates at room temperature for 20 minutes and protect from light. After 20 minutes, wash the samples by DPBS for twice. Then centrifuge and discard the supernatant. Resuspend cells by 300 uL DPBS and transfer the samples to 5 mL Polystryrene Round-Bottom Tube (Falcon, #352054), then tested by BD FACSCanto. […].
Set the PD-L1 signal of vehicle control as 100%, PD-L1 signal of Low control as 0%. Then calculate the compound treated samples' PD-L1 signal
0% PD-L1 signal: Low control which stained without anti-CD274
100% PD-L1 Signal: vehicle control which stained with anti-CD274
The % activation of PD-L1 Internalization=1−PD-L1 signal of compound.

In assay [3] the target is extracellular domains of PD-L1 (Homo sapiens (Human), UniProt Q9NZQ7). As to the kind of experiment: PD-L1 dimerization (biochemical protein-protein interaction assay). Particulars: PDL1-Eu and PDL1-A2, 25° C., 120 min. As for the experimental part:
Compounds were tested in biochemical protein-protein interaction assays to determine if they can specifically dimerize the extracellular domains of PD-L1. • (1) Dilute cpd 1:3 in succession in DMSO for each column for 10±0 pts (refer to dilution plate map) • (2) Transfer 0.2 μL cpds solution in each row to 384 assay plate using Echo, each column containing 2 replicates (refer to assay plate map). • (3) Add 20 μL prepared mixture include PDL1-Eu and PDL1-A2 solution to assay plate, centrifuge at 1000 rpm for 1 min. • (4) Incubate at 25° C. for 120 min. • (5) Read fluorescence signal on Envision 2104 plate reader. • (6) Read the Ratio (665 nm/615 nm) signal on Envision. • (7) Analyze the raw data using the equation (V. Data analysis)

For assay [4], the system named is Hep3B-OS8-hPDL1 cells and CD3+ T cells. The experiment in a line: Hep3B-OS8-hPDL1 and T cells co-culture assay (IFN-γ by ELISA). The format is cell-based. Particulars: Homo sapiens, T-cell, 72 hours, read-out: Tumor and T Cell EC50 (nm). As to the method: a. Hep3B-OS8-hPDL1 and T Cells Co-Culture Assay
• 1. Hep3B-OS8-hPDL1 cells were cultured in 1640 medium supplemented with 10% fetal bovine serum, 1% penicillin and streptomycin, in which 100 μg/mL G418 and Hygromycin B were also added. • 2. Hep3B-OS8-hPDL1 cells were harvested and treated with 10 μg/mL mitomycin C at 37° C. for 1.5 h, and the cells were then washed thoroughly with PBS for four times. • 3. Cells were re-suspended with RPMI 1640 medium containing 10% FBS and the cell density was adjusted to 5E5 cells/mL. • 4. Cells were seeded into 96-well flat bottom plate (2.5E4 cells/50 μL/well). b. CD3+ T Cells Isolation (30 mL Blood) • 5. The human blood sample from an individual donor is diluted by the same volume of sterile PBS, for instance add 25 mL sterile PBS into 25 mL fresh whole blood and mix sufficiently by gentle shake. • 6. Transfer 15 mL Lymphoprep medium into a new 50 mL centrifuge tube. • 7. Add the diluted blood sample as soft as possible onto the surface of the Ficoll medium to make sure there is a clear dividing line between the two liquids, and the volume ratio between Ficoll and diluted blood (30 mL) is 1:2. • 8. Move the tube gently to centrifuge, at 1000×g, 25 min, 20° C., with the acceleration (5) and Min deceleration (0) settings during the centrifugation. • 9. Four interfaces in all could be observed after the centrifugation, which are layers of plasma, mononuclear cells, the Ficoll medium and RBCs from top to bottom, and move the tube as gently as possible so as keep the four interfaces separated. Absorb and transfer the second layer of mononuclear cells into another new sterile centrifuge tube carefully, and absorb certain volume of plasma instead of the Ficoll medium if inevitable. • 10. Add sterile PBS of the three times the volume of PBMCs in the tube with PBMC. • 11. Wash the cells twice with 5-10 mL PBS before cell counting with cytometer. Centrifuge at 350×g, 10 min, 20° C. With the acceleration (5) and deceleration (5) settings during the centrifugation. • 12. Resuspend the cells with recommended medium and adjust the density of the PBMCs to the final concentration of 5E7 cells/mL. • 13. Isolate CD3+ T cells with EasySep™ Human T Cell Isolation Kit (STEMCELL Technologies #17951), and the cells were seeded into 96-well flat bottom plate (5E4 cells/100 μL/well). c. Compounds solutions preparation • 14. Prepare the Compounds dilutions in RPMI 1640 medium with 10% FBS according to the Layout. 15. Add compounds into each well in a volume of 50 μL. {3 compounds (GLC01-258, GLC01-269, GLC01-465) in 7 concentrations (0.03, 0.1, 0.3, 1, 3, 10 and 30 μM) and 6 compounds (GLC01-411, GLC01-292, GLC01-445, GLC01-475, GLC01-470 and GLC01-468) in the same concentration (1 μM)}. • 16. […]
A general note: In an ELISA, binding on a coated surface is turned into a signal by an enzyme label.

Sequence of PD-L1/CHO-K1 cells (Q9NZQ7 19-290): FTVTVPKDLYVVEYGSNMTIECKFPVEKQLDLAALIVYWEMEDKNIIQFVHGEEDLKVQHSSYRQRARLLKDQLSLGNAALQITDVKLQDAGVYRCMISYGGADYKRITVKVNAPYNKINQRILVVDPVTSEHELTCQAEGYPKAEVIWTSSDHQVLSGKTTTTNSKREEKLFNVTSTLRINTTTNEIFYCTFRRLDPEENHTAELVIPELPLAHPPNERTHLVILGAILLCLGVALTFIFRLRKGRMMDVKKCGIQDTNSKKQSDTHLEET
Sequence of extracellular domains of PD-L1 (Q9NZQ7 19-238): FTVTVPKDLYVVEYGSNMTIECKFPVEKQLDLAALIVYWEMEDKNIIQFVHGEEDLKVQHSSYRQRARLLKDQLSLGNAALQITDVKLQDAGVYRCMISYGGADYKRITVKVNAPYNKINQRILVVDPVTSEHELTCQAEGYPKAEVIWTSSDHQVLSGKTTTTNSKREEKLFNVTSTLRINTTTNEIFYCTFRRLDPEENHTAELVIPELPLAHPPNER
Sequence of PD-1/PD-L1 (Q9NZQ7 19-238): as above

The IC50 is the point on the concentration scale where inhibition reaches its midpoint. One may read the EC50 as the concentration giving half of the maximal effect. Take `O=C(O)[C@H](CO)NCCN1C(=O)COc2cc(-c3cccc(-c4cccc(-c5cc6c(cc5F)N(CCN[C@@H](CO)C(=O)O)C(=O)CO6)c4Cl)c3Cl)c(F)cc21` [Compound 554, (2S,2'S)-2,2′-((((2,2′-dichloro-[1,1′-biphenyl]-3,3′-diyl)bis(6-fluoro-3-oxo-2,3-dihydro-4H-benzo[b][1,4]oxazine-7,4-diyl))bis(ethane-2,1-diyl))bis(azanediyl))bis(3-hydroxypropanoic acid)]: the IC50 in assay [1] turned out to be 5.51 nM. Moreover, the Internalization in assay [2] is reported as 23.20%. Further, the concentration giving a half-maximal response (EC50) in assay [3] was 55.8 nM; in assay [4], 5.1 nM.

In assay [1], `C[C@H](CN1C(=O)COc2cc(-c3cccc(-c4cccc(-c5ccc6c(c5)OCC(=O)N6C[C@@H](C)N[C@@H](CO)C(=O)O)c4Cl)c3Cl)ccc21)N[C@@H](CO)C(=O)O` [Compound 563, (2S,2'S)-2,2′-(((2R,2′R)-((2,2′-dichloro-[1,1′-biphenyl]-3,3′-diyl)bis(3-oxo-2,3-dihydro-4H-benzo[b][1,4]oxazine-7,4-diyl))bis(propane-1,2-diyl))bis(azanediyl))bis(3-hydroxypropanoic acid)] had an IC50 of 7.18 nM. Moreover, the Internalization in assay [2] is 25.50%. The same compound had an EC50 in assay [3] of 37.7 nM.

For `O=C1COc2cc(-c3cccc(-c4cccc(-c5ccc6c(c5)OCC(=O)N6C[C@@H]5C[C@@H](O)CN5)c4Cl)c3Cl)ccc2N1C[C@@H]1C[C@@H](O)CN1` [Compound 472], in assay [1], the IC50 worked out at 5.27 nM. The Internalization in assay [2] is recorded as 17.20%. The compound also had an EC50 in assay [3] of 359 nM.

In the case of `O=C(O)[C@H](CO)NCCN1C(=O)COc2cc(-c3cccc(-c4cccc(-c5ccc6c(c5)OCC(=O)N6C[C@@H]5CCCN5)c4Cl)c3Cl)ccc21` [Compound 533], the IC50 in assay [1] was found to be 7.11 nM. Moreover, in assay [2], the Internalization came to 32.70%. The 50% effective concentration (EC50) was found to be 91 nM in assay [3] and 6.03 nM in assay [4].

For the compound `O=C1COc2cc(-c3cccc(-c4cccc(-c5ccc6c(c5)OCC(=O)N6C[C@@H]5CCCN5)c4Cl)c3Cl)ccc2N1C[C@@H]1CCCN1` [Compound 411, 7,7′-(2,2′-dichloro-[1,1′-biphenyl]-3,3′-diyl)bis(4-(((S)-pyrrolidin-2-yl)methyl)-2H-benzo[b][1,4]oxazin-3(4H)-one)], in assay [1], the IC50 stood at 6.14 nM. For the same compound, the Internalization in assay [2] is given as 66.90%. The compound further displayed an EC50 in assay [3] of 357 nM.

In turn, `COC[C@H](NCCN1C(=O)COc2cc(-c3cccc(-c4cccc(-c5ccc6c(c5)OCC(=O)N6CCN[C@@H](COC)C(=O)O)c4Cl)c3Cl)ccc21)C(=O)O` [Compound 588] showed an IC50 in assay [1] of 7.35 nM. Besides, the Internalization in assay [2] turned out to be 2.00%. This compound yielded an EC50 in assay [3] of 154 nM.

Compound `C[C@H]1CC[C@@H](CN2C(=O)COc3cc(-c4cccc(-c5cccc(-c6ccc7c(c6)OCC(=O)N7C[C@@H]6CC[C@H](C)N6)c5Cl)c4Cl)ccc32)N1` [Compound 535] had an IC50 in assay [1] of 4.41 nM. Further, the Internalization in assay [2] is 21.00%. In assay [3], this compound gave an EC50 of 354 nM.
